According to the NIST ThermoML archive (doi:10.1021/acs.jced.8b00005):
“And” between values parts separate entries of the source, which are not always exact repeats. Equal entries are not always repeated.

Details: Liquid, Ebulliometric method (Recirculating still)

CC(=O)OC(C)C [1-methylethyl ethanoate]
Details | vapor or sublimation pressure
304.07 K | 10.57 kPa
306.28 K | 11.58 kPa
308.95 K | 13.35 kPa
312.53 K | 15.79 kPa
316.52 K | 19 kPa
317.77 K | 20 kPa
320.42 K | 22.45 kPa
323.45 K | 25.6 kPa
325.91 K | 28.24 kPa
328.97 K | 31.94 kPa
332.14 K | 36.19 kPa
334.75 K | 39.98 kPa and 40 kPa
337.73 K | 44.85 kPa
340.95 K | 50.51 kPa
344.18 K | 56.66 kPa
345.94 K | 60.03 kPa and 60 kPa
348.17 K | 65.32 kPa
350.35 K | 70.47 kPa
352.47 K | 75.52 kPa
354.29 K | 79.97 kPa and 80 kPa
356.48 K | 85.89 kPa
358.2 K | 90.5 kPa
359.77 K | 95.13 kPa
361.79 K | 101.26 kPa and 101.3 kPa

CCO [ethanol]
Details | vapor or sublimation pressure
307.52 K | 13.19 kPa
309.89 K | 15.05 kPa
312.21 K | 17.13 kPa
315.24 K | 20 kPa
318.42 K | 23.45 kPa
320.31 K | 25.72 kPa
322.13 K | 28.12 kPa
324.1 K | 30.85 kPa
325.96 K | 33.68 kPa
327.52 K | 36.2 kPa
329.57 K | 40 kPa
329.58 K | 40 kPa
331.49 K | 43.49 kPa
333.45 K | 47.62 kPa
335.16 K | 51.36 kPa
336.76 K | 55.12 kPa
338.72 K | 60.05 kPa
338.73 K | 60 kPa
340.19 K | 63.84 kPa
341.5 K | 67.56 kPa
343.06 K | 72.1 kPa
344.37 K | 75.99 kPa
345.69 K | 79.99 kPa and 80 kPa
347.1 K | 84.65 kPa
348.51 K | 89.37 kPa
349.83 K | 94.48 kPa
351.55 K | 101.31 kPa
351.65 K | 101.3 kPa
